Ends that are not written are not given here.
Assays:
[1] = system: DU145 cells; experiment: Stability testing of the peptide in RPMI 1640 with 10% FBS, read out by DU145 cell viability; format: in vitro ADME, human; conditions: pre-incubation in RPMI 1640 with 10% FBS, 37°C, 24 hours; then 24 hours on DU145 cells, MTS 490 nm, triplicate
Description: Figure 4 A. D- Arg Peptide incubated in 10% FBS RPMI media at 37°C for 24 hours is resistant to proteolysis; it is as effective as the non-incubated D- Arg Peptide in DU145 cells. D- Arg Peptide was incubated in RPMI media containing 10% FBS at 37°C for 24 hours. DU145 cells were seeded in a 96 well plate at 5000 cells in each well. After 24 hours either the incubated D- Arg Peptide or the non-incubated D- Arg Peptide was added to the cells. B. D- Arg and L-Arg Peptide incubated in 10% FBS RPMI media at 37°C for 24 hours. DU145 cells were seeded in a 96 well plate at 5000 cells in each well. After 24 hours either the incubated D- Arg Peptide or the L- Arg Peptide was added to the cells. The cell viability in both experiments were assessed after another 24 hours by measuring the absorption at 490nm using the MTS tetrazolium Promega CellTitre 96® Aqueous One Solution Cell proliferation assay according to the manufacturer’s instructions. Each time point was done in triplicate and values are represented by mean with standard mean deviation.
The peptide was mixed with the RPMI 1640 medium containing 10% FBS and incubated at 37 °C for 24 hours. Cells were plated in a 96 well plate in 180 μl of the media containing 10% FBS. After 24 hours, 20 μl of either the incubated D- Arg or the regular (fresh) D- Arg Peptide was added to the cell plate and tested after another 24 hours. Then 20 μl of the MTS tetrazolium Promega CellTitre 96® Aqueous One Solution Cell Proliferation Assay was added to each well and incubated for two to three hours. Absorbance was measured at 490 nm as per the manufacturer’s protocol to determine the cell viability.

[2] = system: Burkitt lymphoma cells; conditions: cited from earlier work
Excerpt: (§1) This unique E2F1 inhibitory peptide with the sequence His-His-His-Arg-Leu-Ser-His, found by phage display, was discovered by its ability to bind tightly to an immobilized consensus E2F1 promoter sequence. Importantly, treatment of tumor xenografts of human small cell lung cancer H69 and human prostate cancer DU14 ...

[3] = system: DU145 prostate cancer cells; conditions: cited from earlier work
Excerpt: as §1

[4] = system: pRB negative small cell lung cancer (SCLC) cells; conditions: cited from earlier work
Excerpt: as §1

[5] = system: consensus E2F1 promoter sequence; conditions: found by phage display; cited from earlier work
Excerpt: as §1

For `CC[C@H](C)[C@H](NC(=O)[C@H](CCCCN)NC(=O)[C@@H](NC(=O)[C@H](CCC(N)=O)NC(=O)[C@@H](N)CCCNC(=N)N)[C@@H](C)CC)C(=O)N[C@@H](Cc1c[nH]c2ccccc12)C(=O)N[C@@H](Cc1ccccc1)C(=O)N[C@@H](CCC(N)=O)C(=O)N[C@@H](CC(N)=O)C(=O)N[C@@H](CCCNC(=N)N)C(=O)N[C@@H](CCCNC(=N)N)C(=O)N[C@@H](CCSC)C(=O)N[C@@H](CCCCN)C(=O)N[C@@H](Cc1c[nH]c2ccccc12)C(=O)N[C@@H](CCCCN)C(=O)N[C@@H](CCCCN)C(=O)N[C@@H](Cc1c[nH]cn1)C(=O)N[C@@H](Cc1c[nH]cn1)C(=O)N[C@@H](Cc1c[nH]cn1)C(=O)N[C@H](CCCNC(=N)N)C(=O)N[C@@H](CC(C)C)C(=O)N[C@@H](CO)C(=O)N[C@@H](Cc1c[nH]cn1)C(=O)O` [D-Arg PEP], the “Stability in serum: incubated D- Arg versus incubated L- Arg peptide” value [1] was “more resistant to proteolysis after pre-incubation in serum” and the “Stability: toxicity of pre-incubated versus fresh non-incubated peptide” value [1] was “as potent as the non-incubated fresh D- Arg PEP”.
For `CC[C@H](C)[C@H](NC(=O)[C@H](CCCCN)NC(=O)[C@@H](NC(=O)[C@H](CCC(N)=O)NC(=O)[C@@H](N)CCCNC(=N)N)[C@@H](C)CC)C(=O)N[C@@H](Cc1c[nH]c2ccccc12)C(=O)N[C@@H](Cc1ccccc1)C(=O)N[C@@H](CCC(N)=O)C(=O)N[C@@H](CC(N)=O)C(=O)N[C@@H](CCCNC(=N)N)C(=O)N[C@@H](CCCNC(=N)N)C(=O)N[C@@H](CCSC)C(=O)N[C@@H](CCCCN)C(=O)N[C@@H](Cc1c[nH]c2ccccc12)C(=O)N[C@@H](CCCCN)C(=O)N[C@@H](CCCCN)C(=O)N[C@@H](Cc1c[nH]cn1)C(=O)N[C@@H](Cc1c[nH]cn1)C(=O)N[C@@H](Cc1c[nH]cn1)C(=O)N[C@@H](CCCNC(=N)N)C(=O)N[C@@H](CC(C)C)C(=O)N[C@@H](CO)C(=O)N[C@@H](Cc1c[nH]cn1)C(=O)O` [L-Arg PEP], the “Stability in serum: incubated D- Arg versus incubated L- Arg peptide” value [1] is listed as “unstable in serum”, the Cytotoxicity [2] is listed as “cytotoxic at low micro molar concentrations” and the Cytotoxicity [3] is listed as “cytotoxic at low micro molar concentrations”. The Cytotoxicity [4] was “cytotoxic at low micro molar concentrations”.
For “HHHRLSH [E2F1 inhibitory peptide, 7-mer peptide His-His-His-Arg-Leu-Ser-His found by phage display]”, the “Binding to immobilized consensus E2F1 promoter sequence” value [5] is listed as “bind tightly”.

From article PMC6161789, “Modeling and antitumor studies of a modified L–penetratin peptide targeting E2F in lung cancer and prostate cancer” (Oncotarget, 2018)
